Results taken from ChEMBL document CHEMBL1201862, “PubChem BioAssay data set” (2004).
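Each compound was tested at five concentrations against cells in 96-well plates for 48 hours. GI50 is the concentration that inhibits growth by half.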 The source made the active and inactive calls. Rule as the data show it: active = GI50 up to about 1.1 µM and inactive = higher.

Tests used:
Assay in all cases: NCI-60 cell line screen, 48 h
A549 = tested on: A549
CAKI-1 = tested on: CAKI-1
CCRF-CEM = tested on: CCRF-CEM
HOP-92 = tested on: HOP-92
KM12 = tested on: KM12
Malme-3M = tested on: Malme-3M
OVCAR-4 = tested on: OVCAR-4
SK-MEL-28 = tested on: SK-MEL-28
SN12C = tested on: SN12C
SNB-75 = tested on: SNB-75
SR = tested on: SR
UACC-62 = tested on: UACC-62
UO-31 = tested on: UO-31
OVCAR-3 = tested on: OVCAR-3
SF-268 = tested on: SF-268
NCI-H226 = tested on: NCI-H226

SMILES	GI50 (A549)	GI50 (CAKI-1)	GI50 (CCRF-CEM)	GI50 (HOP-92)	GI50 (KM12)	GI50 (Malme-3M)	GI50 (OVCAR-4)	GI50 (SK-MEL-28)	GI50 (SN12C)	GI50 (SNB-75)	GI50 (SR)	GI50 (UACC-62)	GI50 (UO-31)	GI50 (OVCAR-3)	GI50 (SF-268)	GI50 (NCI-H226)
COc1ccc(-c2cc(O)c3cc4c(cc3n2)OCO4)c(OC)c1	41.8 µM (inactive)	> 100 µM (inactive)	34.4 µM (inactive)	82 µM (inactive)	41.6 µM (inactive)	25.2 µM (inactive)	71.1 µM (inactive)	32.9 µM (inactive)	59.6 µM (inactive)	4.4 µM (inactive)	22.1 µM (inactive)	28.3 µM (inactive)	57.3 µM (inactive)			
CC1(O)CC2C(CC1SCCO)C2(C)C (stereo unspecified)	> 100 µM (inactive)		> 100 µM (inactive)	> 100 µM (inactive)	> 100 µM (inactive)	> 100 µM (inactive)	> 100 µM (inactive)	> 100 µM (inactive)	> 100 µM (inactive)	> 100 µM (inactive)			> 100 µM (inactive)	> 100 µM (inactive)	> 100 µM (inactive)	
O=C1CCCCC/C=C2/CC[C@H](Sc3ccccc3)[C@@H]12	34.3 µM (inactive)		6.27 µM (inactive)		87.1 µM (inactive)	> 100 µM (inactive)	> 100 µM (inactive)	> 100 µM (inactive)	> 100 µM (inactive)	36.8 µM (inactive)	55.2 µM (inactive)	> 100 µM (inactive)	50 µM (inactive)		88.5 µM (inactive)	> 100 µM (inactive)
CC1NOC(=O)C1/N=N/c1ccccc1Br (stereo unspecified)	24.2 µM (inactive)	16.8 µM (inactive)	25.8 µM (inactive)	24 µM (inactive)	21.2 µM (inactive)	26.2 µM (inactive)	39.3 µM (inactive)	31 µM (inactive)	24.5 µM (inactive)	31.4 µM (inactive)	25.1 µM (inactive)	19.9 µM (inactive)	18.6 µM (inactive)	20.5 µM (inactive)	28.4 µM (inactive)	31.6 µM (inactive)
N/N=C1/C(=O)N(c2ccc(Cl)cc2)C(=O)C(=O)C1c1nc2ccccc2s1 (stereo unspecified)	> 100 µM (inactive)	> 68.2 µM (inactive)	74.6 µM (inactive)	> 100 µM (inactive)	> 100 µM (inactive)	> 100 µM (inactive)	> 100 µM (inactive)	> 100 µM (inactive)	> 100 µM (inactive)	> 65.6 µM (inactive)		> 100 µM (inactive)	> 100 µM (inactive)	> 100 µM (inactive)	> 100 µM (inactive)	
CN/N=C(/CC(=O)c1sc(-n2nc(-c3ccccc3)cc2-c2ccccc2)nc1C)C(=O)Nc1ccc(Cl)c(Cl)c1	37.9 µM (inactive)	14.7 µM (inactive)	27.7 µM (inactive)	14.1 µM (inactive)	41.7 µM (inactive)	78.3 µM (inactive)	52.6 µM (inactive)	55.1 µM (inactive)	66.5 µM (inactive)		29.3 µM (inactive)	26.5 µM (inactive)	21.2 µM (inactive)	38.7 µM (inactive)	35.2 µM (inactive)	17.2 µM (inactive)
[O-][S+]1c2ccc(Cl)cc2CC(SSC2Cc3cc(Cl)ccc3[S+]([O-])c3ccccc32)c2ccccc21 (stereo unspecified)	> 100 µM (inactive)	> 100 µM (inactive)	> 100 µM (inactive)	> 100 µM (inactive)	> 100 µM (inactive)	> 100 µM (inactive)	> 100 µM (inactive)	> 100 µM (inactive)	> 100 µM (inactive)	> 100 µM (inactive)		> 100 µM (inactive)	> 100 µM (inactive)	> 100 µM (inactive)	> 100 µM (inactive)	> 100 µM (inactive)
IC[P+]1(c2ccccc2)CCCC1	28.7 µM (inactive)		54.2 µM (inactive)		32.5 µM (inactive)	44.5 µM (inactive)		50 µM (inactive)	14.3 µM (inactive)	26.2 µM (inactive)	33.4 µM (inactive)	> 100 µM (inactive)	> 100 µM (inactive)	43 µM (inactive)		24.2 µM (inactive)
COC(=O)C1=C(C)N(NC(N)=O)C(C)(O)C12CCOC2=O (stereo unspecified)	> 100 µM (inactive)	> 100 µM (inactive)	> 100 µM (inactive)	> 100 µM (inactive)	> 100 µM (inactive)	> 100 µM (inactive)	> 100 µM (inactive)	> 100 µM (inactive)	> 100 µM (inactive)			> 10 µM (inactive)	> 100 µM (inactive)	> 100 µM (inactive)	> 100 µM (inactive)	> 100 µM (inactive)
COC(=O)CCc1cccnc1/C=N/O	> 100 µM (inactive)	> 100 µM (inactive)	96.4 µM (inactive)	> 100 µM (inactive)	> 100 µM (inactive)	> 100 µM (inactive)	> 100 µM (inactive)	> 100 µM (inactive)	> 100 µM (inactive)	> 100 µM (inactive)	> 100 µM (inactive)	> 100 µM (inactive)	> 100 µM (inactive)	> 100 µM (inactive)	> 100 µM (inactive)	> 100 µM (inactive)
O=C(CN1CCCCC1)N1CCc2c([nH]c3ccccc23)C1c1cccnc1 (stereo unspecified)	> 100 µM (inactive)	> 100 µM (inactive)	> 100 µM (inactive)	34.6 µM (inactive)	> 100 µM (inactive)		> 100 µM (inactive)	> 100 µM (inactive)	> 100 µM (inactive)	> 100 µM (inactive)		> 100 µM (inactive)	48.8 µM (inactive)	> 100 µM (inactive)	> 100 µM (inactive)	
Cn1nc(-c2ccccc2)c(C(=O)/C=C/c2ccc(Cl)cc2)c(N2CCCCC2)c1=O	2.92 µM (inactive)	0.826 µM (active)	2.18 µM (inactive)	1.91 µM (inactive)				3.78 µM (inactive)	3.53 µM (inactive)			2.2 µM (inactive)	1.65 µM (inactive)		2 µM (inactive)	
CC(=O)NC1C(OCc2ccccc2)OC(COC(=O)CCCCCCCCCCNC(=O)CCNc2ccc([N+](=O)[O-])c3[nH]c4ccc(O)cc4c(=O)c23)C(O)C1OC(C)C(=O)N[C@H](C(=O)N[C@H](CCC(=O)O)C(N)=O)C(C)C (stereo partly specified)	> 100 µM (inactive)	> 100 µM (inactive)	33 µM (inactive)	28.7 µM (inactive)	63.4 µM (inactive)	22.9 µM (inactive)	35.4 µM (inactive)	> 100 µM (inactive)	64 µM (inactive)	17.1 µM (inactive)	20 µM (inactive)	85.3 µM (inactive)	55.2 µM (inactive)	84.9 µM (inactive)	> 100 µM (inactive)	36.3 µM (inactive)
CC(C)=CC1CCc2ccccc2N1S(=O)(=O)c1ccc(C)cc1 (stereo unspecified)	1.22 µM (inactive)		0.373 µM (active)	0.433 µM (active)	0.624 µM (active)	1.67 µM (inactive)	4.31 µM (inactive)	1.96 µM (inactive)	2.99 µM (inactive)	1.17 µM (inactive)		0.982 µM (active)	3.61 µM (inactive)	0.865 µM (active)	2.93 µM (inactive)	1.77 µM (inactive)
Cc1c(C(=O)/C=C/c2ccccc2Cl)[n+]([O-])c2ccccc2[n+]1[O-]	15.9 µM (inactive)	3.24 µM (inactive)		15.3 µM (inactive)	14.3 µM (inactive)	15.6 µM (inactive)	12.1 µM (inactive)	16.6 µM (inactive)	15.1 µM (inactive)	16.4 µM (inactive)	16.6 µM (inactive)		19.1 µM (inactive)	15.9 µM (inactive)		15.3 µM (inactive)
CC12CCC(C)(c3cc(O)c(O)cc31)c1cc(O)c(O)cc12	29.6 µM (inactive)	11.2 µM (inactive)	2.92 µM (inactive)	10.7 µM (inactive)	17.1 µM (inactive)	18.3 µM (inactive)	14.6 µM (inactive)	16.4 µM (inactive)	21.8 µM (inactive)	11.6 µM (inactive)		17.3 µM (inactive)	19.8 µM (inactive)	17.8 µM (inactive)	18.2 µM (inactive)	
C=C1C(=O)OC2C1CC[C@H](C)C1(O)C(O)CC(=O)[C@@]21C (stereo partly specified)	31 µM (inactive)	27.7 µM (inactive)	> 10 µM (inactive)	27.7 µM (inactive)	17.3 µM (inactive)	17.3 µM (inactive)		13.6 µM (inactive)	22 µM (inactive)	24.7 µM (inactive)	17.1 µM (inactive)	12.7 µM (inactive)	28.6 µM (inactive)	21.2 µM (inactive)	23.3 µM (inactive)	21.7 µM (inactive)
[N-]=[N+]=NC(CI)c1cn([C@H]2C[C@H](O)[C@@H](CO)O2)c(=O)[nH]c1=O (stereo partly specified)	41.5 µM (inactive)	> 100 µM (inactive)	> 100 µM (inactive)	> 100 µM (inactive)	> 100 µM (inactive)	> 100 µM (inactive)		> 100 µM (inactive)	> 100 µM (inactive)	> 100 µM (inactive)	> 100 µM (inactive)	> 100 µM (inactive)	> 100 µM (inactive)	> 100 µM (inactive)		> 100 µM (inactive)
COc1cc2c(c(OC)c1OC)-c1ccc(SC)c(=O)cc1[C@@H](NC(=O)c1ccc(F)cc1)CC2			< 0.01 µM (active)	0.0281 µM (active)	0.0217 µM (active)	0.0615 µM (active)	6.59 µM (inactive)	15.2 µM (inactive)	0.0384 µM (active)	0.07 µM (active)		0.0454 µM (active)	< 0.01 µM (active)	0.0183 µM (active)	0.0455 µM (active)	0.0381 µM (active)
